Experimental data from patent publication US6620828B2, “Thiazole compounds and pharmaceutical compositions for inhibiting protein kinases and methods for their use” (Agouron Pharmaceuticals, Inc., priority 1999, dated 2003).
Counter-ions that a name gives are not always drawn. Values belong to the compound of their own block, whether it stands above or below them.

Tests used:
Type in all cases: biochemical
[1] = target: T1, unphosphorylated VEGF-R2Δ50 (FLVK) (Homo sapiens, UniProt P35968, DEL940-989/E990V); experiment: VEGF-R2 coupled spectrophotometric assay, unphosphorylated enzyme (FLVK); conditions: Table 3; for inhibition at 0.05 µM: at 50 nM; for Ki: some entries 'Slow binder'
T1 construct: VEGF-R2Δ50 contains residues 806-939 and 990-1171; made in house; host or cells: baculovirus/insect cells
T1 sequence (P35968 with tags, fused parts or gaps DEL940-989/E990V limits assumed): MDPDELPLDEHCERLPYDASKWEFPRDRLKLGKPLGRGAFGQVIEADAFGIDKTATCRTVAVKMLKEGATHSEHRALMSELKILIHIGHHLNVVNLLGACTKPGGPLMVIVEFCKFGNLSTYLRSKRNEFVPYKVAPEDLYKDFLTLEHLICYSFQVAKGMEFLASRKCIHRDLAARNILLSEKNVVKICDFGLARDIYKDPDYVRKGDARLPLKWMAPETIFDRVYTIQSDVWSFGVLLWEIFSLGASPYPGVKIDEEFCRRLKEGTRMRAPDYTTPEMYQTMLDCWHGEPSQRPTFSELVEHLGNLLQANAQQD
Description: VEGF-R2 Construct for Assay: This construct determines the ability of a test compound to inhibit tyrosine kinase activity. A construct (VEGF-R2Δ50) of the cytosolic domain of human vascular endothelial growth factor receptor 2 (VEGF-R2) lacking the 50 central residues of the 68 residues of the kinase insert domain was expressed in a baculovirus/insect cell system. Of the 1356 residues of full-length VEGF-R2, VEGF-R2Δ50 contains residues 806-939 and 990-1171, and also one point mutation (E990V) within the kinase insert domain relative to wild-type VEGF-R2. Autophosphorylation of the purified construct was performed by incubation of the enzyme at a concentration of 4 μM in the presence of 3 mM ATP and 40 mM MgCl2 in 100 mM Hepes, pH 7.5, containing 5% glycerol and 5 mM DTT, at 4° C. for 2 h. […] See Parast et al., Biochemistry, 37, 16788-16801 (1998).
The production of ADP from ATP that accompanies phosphoryl transfer was coupled to oxidation of NADH using phosphoenolpyruvate (PEP) and a system having pyruvate kinase (PK) and lactic dehydrogenase (LDH). The oxidation of NADH was monitored by following the decrease of absorbance at 340 nm (e340=6.22 cm^−1 mM^−1) using a Beckman DU 650 spectrophotometer. Assay conditions for phosphorylated VEGF-R2Δ50 (indicated as FLVK-P in the tables below) were the following: 1 mM PEP; 250 μM NADH; 50 units of LDH/mL; 20 units of PK/mL; 5 mM DTT; 5.1 mM poly(E4Y1); 1 mM ATP; and 25 mM MgCl2 in 200 mM Hepes, pH 7.5. Assay conditions for unphosphorylated VEGF-R2Δ50 (indicated as FLVK in the tables) were the following: 1 mM PEP; 250 μM NADH; 50 units of LDH/mL; 20 units of PK/mL; 5 mM DTT; 20 mM poly(E4Y1); 3 mM ATP; and 60 mM MgCl2 and 2 mM MnCl2 in 200 mM Hepes, pH 7.5. Assays were initiated with 5 to 40 nM of enzyme. Ki values were determined by measuring enzyme activity in the presence of varying concentrations of test compounds. The data were analyzed using Enzyme Kinetic and Kaleidagraph software.

FL-CHK1 = target: T2, FL-CHK1 (Homo sapiens, UniProt O14757); experiment: CHK1 assay; conditions: 20 μM; combinatorial library compounds
T2 construct: C-terminally His-tagged full-length human CHK1 (FL-CHK1); 6xHis (C); made in house; host or cells: baculovirus/insect cells
T2 sequence (O14757 1-476): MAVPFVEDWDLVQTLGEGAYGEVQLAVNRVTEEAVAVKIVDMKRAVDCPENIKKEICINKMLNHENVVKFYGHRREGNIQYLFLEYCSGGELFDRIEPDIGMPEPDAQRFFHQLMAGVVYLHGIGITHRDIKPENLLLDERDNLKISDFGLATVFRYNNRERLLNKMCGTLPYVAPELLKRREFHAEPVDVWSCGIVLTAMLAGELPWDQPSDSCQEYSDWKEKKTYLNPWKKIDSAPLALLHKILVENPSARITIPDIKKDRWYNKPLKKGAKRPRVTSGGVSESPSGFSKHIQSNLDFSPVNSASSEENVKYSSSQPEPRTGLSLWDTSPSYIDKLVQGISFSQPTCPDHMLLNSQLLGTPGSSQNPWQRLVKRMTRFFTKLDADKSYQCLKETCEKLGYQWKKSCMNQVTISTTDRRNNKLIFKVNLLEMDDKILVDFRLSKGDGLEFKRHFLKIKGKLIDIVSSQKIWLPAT
Method in brief: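 Full-length human CHK1 with C-terminal 6×His tag, made in baculovirus/insect cells, 10 nM, phosphorylating 0.125 mM Syntide-2 with 0.15 mM ATP in 50 mM Tris pH 7.5, 25 mM MgCl2, 400 mM NaCl. PK/LDH-coupled NADH oxidation read at 340 nm. Ki from initial rates over varied compound concentrations.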

CDK2/Cyclin A complex = CDK2/Cyclin A complex (Homo sapiens, UniProt P24941); experiment: CDK2/Cyclin A assay; conditions: 1.0 μM; combinatorial library compounds
Method in brief: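 Radiometric assay: 150 nM CDK2/cyclin A (insect-cell CDK2, truncated cyclin A) phosphorylates His-tagged Rb fragment (residues 386-928) with 25 μM ATP plus [32P]ATP, pH 7.4 HEPES, 2% DMSO, 30 °C for 20 min. Filter-captured product counted by phosphorimager; apparent Ki from competitive or tight-binding inhibition fits.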

CDK4/Cyclin D3 complex = target: T3, CDK4/Cyclin D3 complex (Homo sapiens, UniProt P11802); experiment: CDK4/Cyclin D assay; conditions: 1.0 μM; combinatorial library compounds
T3 construct: made in house; host or cells: insect cells co-infected with baculovirus vectors
T3 sequence (P11802 whole entry): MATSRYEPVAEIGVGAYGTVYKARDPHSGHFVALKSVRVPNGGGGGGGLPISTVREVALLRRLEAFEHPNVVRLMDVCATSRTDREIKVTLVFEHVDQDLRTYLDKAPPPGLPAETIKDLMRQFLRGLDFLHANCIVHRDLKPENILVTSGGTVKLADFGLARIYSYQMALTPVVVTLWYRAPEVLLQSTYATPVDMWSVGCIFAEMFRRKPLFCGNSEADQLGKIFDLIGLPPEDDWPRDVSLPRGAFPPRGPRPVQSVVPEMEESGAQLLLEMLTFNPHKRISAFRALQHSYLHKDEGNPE
T3 sequence (P30281 whole entry partner): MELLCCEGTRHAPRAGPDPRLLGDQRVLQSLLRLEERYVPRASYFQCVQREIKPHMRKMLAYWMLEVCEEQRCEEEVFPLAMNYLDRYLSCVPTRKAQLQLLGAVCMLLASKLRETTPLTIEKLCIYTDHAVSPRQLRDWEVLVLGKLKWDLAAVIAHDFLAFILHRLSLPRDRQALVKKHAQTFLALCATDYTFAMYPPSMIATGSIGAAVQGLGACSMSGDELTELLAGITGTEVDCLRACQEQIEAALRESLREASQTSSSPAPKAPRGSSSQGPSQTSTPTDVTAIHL
Method in brief: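 Insect-cell-expressed CDK4/cyclin D3 (50 nM) phosphorylating His-tagged Rb fragment (residues 386-928) with 25 μM [^32P]ATP in HEPES pH 7.4, MgCl2, 2% DMSO; 20 min at 30 °C, EDTA stop. Filter-captured 32P by phosphorimager; apparent Ki from competitive or tight-binding inhibition fits.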

[2] = target: T4, phosphorylated VEGF-R2Δ50 (FLVK-P) (Homo sapiens, UniProt P35968, DEL940-989/E990V); experiment: VEGF-R2 coupled spectrophotometric (FLVK-P) assay; conditions: read-out: VEGF % inhibition at 20 μM, 20 μM; combinatorial library compounds
T4 construct: VEGF-R2Δ50 contains residues 806-939 and 990-1171; made in house; host or cells: baculovirus/insect cells
T4 sequence (P35968 with tags, fused parts or gaps DEL940-989/E990V limits assumed): as the sequence (P35968 with tags, fused parts or gaps DEL940-989/E990V limits assumed) above
Method in brief: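 Baculovirus-expressed human VEGF-R2Δ50 (residues 806-939/990-1171, E990V) was autophosphorylated with 3 mM ATP, 40 mM MgCl2 for 2 h at 4° C. ADP formation was coupled via PK/LDH to NADH oxidation, read at 340 nm, with 5.1 mM poly(E4Y1), 1 mM ATP, 25 mM MgCl2, Hepes pH 7.5. Ki came from activity across compound concentrations.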

inhibition at 0.05 µM [1]: 5%
SMILES: Cc1cccc(C(=O)Nc2cccc(-c3noc(-c4sc(NS(C)(=O)=O)nc4N)n3)c2)c1 [F(15), N-{3-[5-(4-Amino-2-methanesulfonylamino-thiazol-5-yl)-[1,2,4]oxadiazol-3-yl]-phenyl}-3-methyl-benzamide]

inhibition at 0.05 µM [1]: 12%
SMILES: COC(=O)c1cccc(-c2noc(-c3sc(Nc4cc(OC)c(OC)c(OC)c4)nc3N)n2)c1 [B(42)]

Ki [1]: 0.29 nM
SMILES: COc1cccc(C(=O)Nc2cc(-c3csc(-c4sc(NC(=O)NCCOCCO)nc4N)n3)c(F)cc2F)c1 [O(28), N-[5-(4′-Amino-2′-{3-[2-(2-hydroxy-ethoxy)-ethyl]-ureido}-[2,5′]bithiazolyl-4-yl)-2,4-difluoro-phenyl]-3-methoxy-benzamide]

Ki [1]: 1.7 nM
SMILES: COc1cccc(C(=O)Nc2cc(-c3csc(-c4sc(NC(=O)NCCN5CCCC5)nc4N)n3)c(F)cc2F)c1 [O(27), N-(5-{4′-Amino-2′-[3-(2-pyrrolidin-1-yl-ethyl)-ureido]-[2,5′]bithiazolyl-4-yl}-2,4-difluoro-phenyl)-3-methoxy-benzamide]

Ki [1]: 3 nM
SMILES: COc1cccc(C(=O)Nc2cc(-c3noc(-c4sc(Nc5ccc(N6CCN(C)CC6)nc5)nc4N)n3)c(C)cc2Cl)c1 [B(28)]

Ki [1]: 0.23 nM
SMILES: CNC(=O)Nc1nc(N)c(-c2nc(-c3cccc(NC(=O)c4cccc(OC)c4)c3)c(C)s2)s1 [O(31), N-{3-[4′-Amino-5-methyl-2′-(3-methyl-ureido)-[2,5′]bithiazolyl-4-yl]-phenyl}-3-methoxy-benzamide]

inhibition at 0.05 µM [1]: 28%
SMILES: COc1cccc(C(=O)Nc2cc(-c3csc(-c4sc(NC(=O)NCC5CCCCC5)nc4N)n3)c(F)cc2F)c1 [O(25), N-{5-[4′-Amino-2′-(3-cyclohexylmethyl-ureido)-[2,5′]bithiazolyl-4-yl]-2,4-difluoro-phenyl}-3-methoxy-benzamide]

FLVK % inhibition ([1]; concentration not given): 80%
SMILES: COc1cccc(C(=O)Nc2cc(-c3noc(-c4sc(Nc5cccnc5)nc4N)n3)c(F)cc2F)c1 [B(20), N-(5-{5-[4-Amino-2-(pyridin-3-ylamino)-thiazol-5-yl]-[1,2,4]oxadiazol-3-yl}-2,4-difluoro-phenyl)-3-methoxy-benzamide-TFA salt]

Ki [1]: 0.15 nM
SMILES: COc1cccc(C(=O)Nc2cc(-c3noc(-c4sc(NC(=O)NCCOCCO)nc4N)n3)c(F)cc2F)c1 [O(6), N-{5-[5-(4-Amino-2-{3-[2-(2-hydroxy-ethoxy)-ethyl]-ureido}-thiazol-5-yl)-[1,2,4]oxadiazol-3-yl]-2,4-difluoro-phenyl}-3-methoxy-benzamide]

Ki [1]: 0.13 nM
SMILES: CCn1nc(C)cc1C(=O)Nc1ccc(C)c(-c2noc(-c3sc(Nc4ccc(CN5CCCC5)cc4)nc3N)n2)c1 [B(10)]

Ki [1]: 0.7 nM
SMILES: Cc1ccc(NC(=O)C(O)CC(C)C)cc1-c1noc(-c2sc(Nc3cccc(CN4CCCC4)c3)nc2N)n1 (racemic) [B(11), (R,S)-3-[3-(2-hydroxy-4-methylpentanoyl)amino]-6-methylphenyl]-5-[2-(3-methylpyrrolidinephenyl)amino]-4-amino-5-thiazolyl]-1,2,4 oxadiazole]

Ki [1]: 1.5 nM
SMILES: CC[C@@H](CO)NC(=O)Nc1nc(N)c(-c2nc(-c3cc(NC(=O)c4cccc(OC)c4)c(F)cc3F)cs2)s1 [O(22), N-(5-{4′-Amino-2′-[3-((S)-1-hydroxymethyl-propyl)-ureido]-[2,5′]bithiazolyl-4-yl}-2,4-difluoro-phenyl)-3-methoxy-benzamide]

Ki [1]: 1.7 nM
SMILES: Cc1ccc(NC(=O)OC(C)(C)C)cc1-c1noc(-c2sc(Nc3ccccc3)nc2N)n1 [B(23)]

Ki [1]: 0.9 nM
SMILES: Cc1ccc(NC(=O)C(O)CC(C)C)cc1-c1noc(-c2sc(Nc3ccc(N4CCN(C)CC4)nc3)nc2N)n1 (stereo not shown) [B(29)]

Ki [1]: 0.21 nM
SMILES: COc1cccc(C(=O)Nc2cc(-c3noc(-c4sc(NC(=O)NCc5ccccn5)nc4N)n3)c(F)cc2F)c1 [O(8), N-(5-{5-[4-Amino-2-(3-pyridin-2-ylmethyl-ureido)-thiazol-5-yl]-[1,2,4]oxadiazol-3-yl}-2,4-difluoro-phenyl)-3-methoxy-benzamide]

inhibition at 0.05 µM [1]: 29%
SMILES: COc1cccc(C(=O)Nc2cc(-c3csc(-c4sc(NC(=O)NC[C@@H]5CCCO5)nc4N)n3)c(F)cc2F)c1 [O(23), N-[5-(4′-Amino-2′-{3-[(S)-1-(tetrahydro-furan-2-yl)methyl]-ureido}-[2,5′]bithiazolyl-4-yl)-2,4-difluoro-phenyl]-3-methoxy-benzamide]

Ki [1]: 0.22 nM
SMILES: COc1cccc(C(=O)Nc2cc(-c3noc(-c4sc(NC(=O)NCC5CCCO5)nc4N)n3)c(F)cc2F)c1 (stereo not shown) [O(5), N-[5-(5-{4-Amino-2-[3-(tetrahydro-furan-2-ylmethyl)-ureido]-thiazol-5-yl}-[1,2,4]oxadiazol-3-yl)-2,4-difluoro-phenyl]-3-methoxy-benzamide]

Ki [1]: 2.3 nM
SMILES: COc1cc(Nc2nc(N)c(-c3nc(-c4cc(NC(=O)OC(C)(C)C)ccc4F)no3)s2)cc(OC)c1OC [B(5), 3-(3-(tert-butyloxycarboxyamino)-6-fluoro-phenyl)-5-[2-[(3,4,5-trimethoxyphenyl)amino]-4-amino-5-thiazolyl]-1,2,4-oxadiazole]

inhibition at 0.05 µM [1]: 11%
SMILES: COc1cccc(C(=O)Nc2cc(-c3csc(-c4sc(NC(=O)NCc5ccccn5)nc4N)n3)c(F)cc2F)c1 [O(16), N-{5-[4′-Amino-2′-(3-pyridin-2-ylmethyl-ureido)-[2,5′]bithiazolyl-4-yl]-2,4-difluoro-phenyl}-3-methoxy-benzamide]

inhibition at 20 µM (FL-CHK1): 0.7%
inhibition at 1 µM (CDK2/Cyclin A complex): 3.6%
inhibition at 1 µM (CDK4/Cyclin D3 complex): 10.3%
inhibition at 20 µM [2]: -14%
SMILES: CCCCCc1ccc(-c2csc(-c3sc(Nc4ccc(C(C)C)cc4)nc3N)n2)cc1

inhibition at 20 µM (FL-CHK1): 14.2%
inhibition at 1 µM (CDK2/Cyclin A complex): 29%
inhibition at 1 µM (CDK4/Cyclin D3 complex): 30.1%
inhibition at 20 µM [2]: 17%
SMILES: CN(C)c1ccc(Nc2nc(N)c(-c3nc(-c4cccc(Br)c4)cs3)s2)cc1

inhibition at 20 µM (FL-CHK1): 18.3%
inhibition at 1 µM (CDK2/Cyclin A complex): 45.7%
inhibition at 1 µM (CDK4/Cyclin D3 complex): 57.5%
inhibition at 20 µM [2]: 18%
SMILES: Nc1nc(Nc2ccc(S(N)(=O)=O)cc2)sc1-c1nc(-c2ccc3oc4ccccc4c3c2)cs1
